One block for each molecule: values may come before it.
Assays:
[1] = system: primary human monocytes / SLE serum-induced ISGs; assay: ISG induction by SLE serum in healthy donor monocytes (qPCR); assay type: cell-based; settings: 4 h, two DWEYS concentrations, control peptide at the higher dose, mean ± SD of three independent experiments
CpG:TLR9 binding = assay: Inhibition of CpG binding to TLR9, AlphaScreen; settings: constant CpG concentration
Experimental: Binding of TLR9 to biotinylated CpG or the DWEYS peptide was assayed in a buffer consisting of 50 mM Tris-HCl pH 7.4, 100 mM NaCl, 1% ultrapure BSA, 0.01% Tween 20 using an amplified luminescent proximity assay with streptavidin-conjugated donor beads and nickel chelate acceptor beads (AlphaScreen; Perkin Elmer, Boston, MA, USA), as described before ([1]).
Figure 2 DWEYS inhibits the transfer of the interferon signature by SLE serum but is not a TLR9 antagonist. (A) Primary human monocytes were incubated with SLE serum with or without DWEYS or with control peptide for 4 h. lSG expression was evaluated by qPCR. […] (B) Assessment of DWEYS and CpG oligonucleotides binding to TLR9. Labeled TLR9 was incubated with varying concentrations of CpG or DWEYS for 30 min in room temperature. Binding was assessed using an AlphaScreen assay as described in the methods section. (C,D) Inhibition assay. Labeled TLR9 and constant, binding concentration of CpG were incubated with different concentrations of DWEYS or a control peptide at neutral (pH 7.4, C) or acidic (pH 6.25, D) condition. Binding was assessed using an AlphaScreen assay as noted in the methods section. Results are representative of three independent experiments. ^***p < 0.001, ns, not significant.

[2] = system: human monocytes (CpG internalization); assay: FITC-CpG internalization by human monocytes, microscopy; assay type: cell-based; settings: 37°C, 15 min (legend 20 min)
Experimental: (§1) For HMGB1 or CpG internalization assays, isolated human monocytes were cultured in 8 well-chamber-slides (Nunc, LabTek, Thermo-Fisher) in X-VIVO 15 culture medium. Cells were allowed to adhere for 2 h and then washed with PBS and incubated with AlexaFluor-594 HMGB1 or FITC-CpG with or without DWEYS for 15 min. Nuclei were counterstained using DAPI. Cells were washed three times with cold PBS and then fixed with 4% PFA and mounted using Dako mounting solution (Agilnet Technologies, Santa Clara, CA, USA).
Non IC-bound DNA can also be internalized by binding to HMGB1, with the HMGB1-DNA complex binding to RAGE ([1]). […] We incubated monocytes from healthy donors with FITC labeled CpG. […] CpG is internalized chaperoned by HMGB1 binding through RAGE.
Figure 4 DWEYS binds HMGB1 and inhibits its binding to RAGE. (A) Monocytes were incubated with labeled CpG (red) and DWEYS or control peptide for 20 min. Cells were counterstained with DAPI prior to imaging. (B) Depicts adjusted fluorescence intensity for three experiments run. (C) Monocytes from C57BL6 wild type (WT) or RAGE^−/− mice were incubated with labeled CpG for 20 min and counterstained with DAPI prior to imaging. (D) Primary human monocytes were incubated with CpG and with or without DWEYS or a control peptide for 20 min. ISG expression was analyzed by qPCR. […]

[3] = system: CpG-induced ISGs, primary human monocytes; assay: ISG induction by CpG in monocytes (qPCR); assay type: cell-based; settings: CpG with or without peptide, 20 min per legend, three independent experiments
HMGB1 = HMGB1 binding, surface plasmon resonance; settings: SPR Biacore T200, HMGB1 immobilized on CM5 chip, 25°C
Experimental: A Biacore T200 apparatus (GE Healthcare Bio-Sciences, Pittsburgh, PA, USA) was used for real-time binding interaction studies. For HMGB1 and DWEYS peptide binding analyses, HMGB1 protein was immobilized onto a CM5 series chip (GE Healthcare). The HMGB1 protein was diluted to a concentration of 20 μg/mL in 10 mM sodium acetate buffer (pH = 4.5). A 1:1 mixture of N-hydroxysuccinimide and N-ethyl-N-(dimethyaminopropyl) carbodiimide was used to activate two flow-cells of the CM5 chip. […] The sample flow-cell was injected with the diluted HMGB1 at a flow rate of 10 μL/min. The HMGB1 injection was stopped when the surface plasmon resonance reached ~600 RU. For HMGB1 and DWEYS peptide kinetics assay, DWEYS peptide were sequentially injected at a flow rate of 20 μL/min for 120 s at 25°C, the dissociation time was set for 2 min. The concentrations were 16, 31.25, 62.5, 125, 250 μM. The equilibrium dissociation constant (KD) was obtained to evaluate the binding affinity by using the BIAEvaluation 2.0 software (GE Healthcare) assuming a 1:1 binding ratio. At least 3 independent experiments were performed.

[4] = system: human monocytes (HMGB1 internalization); assay: HMGB1 internalization by human monocytes, microscopy; assay type: cell-based; settings: AF-594-labeled HMGB1, human monocytes
Experimental: as §1
(B) Inhibition curve used for IC50 evaluation as noted in the methods section. (C,D) Human monocytes were incubated with labeled HMGB1 (red) alone (C, top panel) or HMGB1 and DWEYS (C, middle panel) or HMGB1 and control peptide (C, bottom panel) for 20 min. Cells were counterstained with DAPI and imaged using a confocal laser scanning microscope. (D) Indicates adjusted fluorescence intensity for three experiments. (E) Primary human monocytes were incubated with HMGB1 and with or without DWEYS or control peptide for 4 h. lSG expression was evaluated using qPCR.

[5] = system: HMGB1-induced ISGs, primary human monocytes; assay: ISG induction by HMGB1 in monocytes (qPCR); assay type: cell-based; settings: HMGB1 with DWEYS or control peptide, 4 h, three independent experiments
Experimental: Human cells were obtained with approval of the Institutional Review Board of the Feinstein Institute for Medical Research. PBMCs were isolated from blood of healthy donors (New York Blood Center) by density centrifugation. Monocytes were enriched by negative selection using a human monocyte enrichment kit ([…] Technologies). Purity of monocytes (CD11b^+, CD14^+, LAIR-1^+) was determined to be >90% by flow cytometry (FACS Calibur, BD Biosciences, San Jose, CA, USA). Purified monocytes (2 × 10^6 cells/ml) were cultured in U-bottom 96-well plates in X-VIVO 15 serum free medium (Lonza) with the indicated reagents and harvested at 4–6 h later, or at the indicated times. […] Murine monocyte purity was determined to be >90%.
Total RNA was extracted from cells (1–2 × 10^6 cells per sample) with an RNeasy kit (Qiagen, Germantown, MD, USA) and cDNA was generated using an iScript cDNA synthesis kit (Bio-Rad, Hercules, CA, USA). qRT-PCR was performed on a Light Cycler 480 II (Roche, Indianapolis, IN, USA). […] The relative induction was calculated by 2^−ΔΔCt.
(B) Inhibition curve used for IC50 evaluation as noted in the methods section. […] (D) Indicates adjusted fluorescence intensity for three experiments. (E) Primary human monocytes were incubated with HMGB1 and with or without DWEYS or control peptide for 4 h. lSG expression was evaluated using qPCR.

primary human monocytes = assay: DWEYS internalization into monocytes (ImageStream); assay type: cell-based; settings: 20 min
Experimental: Primary human monocytes were incubated for 20 min with biotin-tagged DWEYS peptide alone or with serum from SLE patients or healthy controls. Following incubation, cells were thoroughly washed and stained with anti-CD14 antibody (R&D Technologies, North Kingston, RI, USA) for 40 min at 4°C. Cells were then washed, fixed using 4% PFA and permeabilized using 1% Triton-X100, followed by incubation with labeled streptavidin for 40 min. Cell nuclei were counterstained with DAPI and cells were imaged using an ImageStream device (Amnis, Burlington, MA, USA).
Figure 3 DWEYS displaces DNA from immune complexes and inhibits DNA internalization into monocytes. (A) Primary human monocytes were incubated with labeled heat aggregated human lgG (hlgG, red) and either DWEYS or a blocking anti-FcRIIa antibody for 20 min. Cells were counterstained with DAPI and imaged using a laser scanning confocal microscope. (B) The graphs indicates adjusted fluorescence intensity for three experiments. (C) SLE serum was incubated with Syto 60 labeled dsDNA (5 μM), followed by DWEYS or control peptide (100 μM) for 30 min each. lgG was then isolated on protein G beads and Syto60 levels from protein G beads were quantified using LICOR scanner. OD was normalized to a standard labeled and filtered DNA. […] (D,E) Primary human monocytes were incubated with biotinylated DWEYS alone or biotinylated DWEYS and SLE serum from patients with or without anti ds DNA antibodies for 20 min. Cells were then stained for CD 14 as a membrane marker and intracellular DWEYS was tagged using fluorochrome labeled streptavidin. Intracellular DWEYS was quantified using lmageStream instrument: DWEYS fluorescence levels by flow cytometry (D) and representative ImageStream cell images (E). One representative experiment of three with similar results is shown. ^*p < 0.05; ns, not significant.

[6] = target: T1, Recombinant HMGB1 (Calmodulin Binding Protein Epitope, Cbp tagged) (UniProt P09429 1-215); assay: SPR; Biacore T200; HMGB1 amine-coupled to a CM5 chip (~600 RU); peptide injected at 16-250 μM, 20 μL/min, 120 s, 25°C; 1:1 binding assumed; apparent KD; settings: both partners purified
T1 construct: high-mobility group box-1 protein (HMGB1), recombinant; The reagents also list 'reduced HMGB1'; also called high-mobility group box-1
T1 sequence (looked up): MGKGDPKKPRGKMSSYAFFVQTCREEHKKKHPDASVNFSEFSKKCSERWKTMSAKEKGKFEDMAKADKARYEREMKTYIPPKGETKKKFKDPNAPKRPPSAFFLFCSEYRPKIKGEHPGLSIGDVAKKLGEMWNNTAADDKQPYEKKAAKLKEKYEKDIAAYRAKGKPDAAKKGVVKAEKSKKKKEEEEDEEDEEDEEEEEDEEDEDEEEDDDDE

[7] = target: T1, Recombinant HMGB1 (Calmodulin Binding …); assay: SPR; inhibition assay, Biacore T200; sRAGE amine-coupled to a CM5 chip (~500 RU); HMGB1 (0.5 μM) with or without DWEYS 50 to 1.6 μM injected at 30 μL/min for 60 s, 25°C; PBS + 0.05 Tween 20; settings: both partners purified

binding to immobilized HMGB1 (HMGB1): did not bind
Molecule: TATAT [control peptide]
ISG induction by SLE serum (effect of peptide) [1]: showed an induction of all three ISGs studied | inhibition of CpG binding to TLR9, acidic pH (CpG:TLR9 binding; pH 6.25 (simulating activated endosome)): neither DWEYS, nor a control peptide, used at various concentrations, inhibited the binding | inhibition of CpG binding to TLR9, neutral pH (CpG:TLR9 binding; pH 7.4): neither DWEYS, nor a control peptide, used at various concentrations, inhibited the binding | CpG internalization (effect of peptide) [2]: no effect | CpG induction of ISGs (effect of peptide) [3]: failed to inhibit ISG induction | HMGB1 internalization (effect of peptide) ([4]; 20 min, confocal microscopy): no inhibition of HMGB1 internalization | ISG level on HMGB1 incubation [5]: increased level of ISGs, in the presence of control peptide

Molecule: biotinylated DWEYS [labeled DWEYS]
internalization of DWEYS, no serum (primary human monocytes; biotinylated DWEYS alone): only minimal internalization | internalization of DWEYS, SLE serum with high anti-DNA titer (primary human monocytes; biotinylated DWEYS with SLE serum with high anti-DNA antibody titer): significant intracellular internalization of DWEYS was seen | internalization of DWEYS, SLE serum lacking anti-DNA antibodies (primary human monocytes; biotinylated DWEYS with SLE serum with low titers of anti-DNA antibodies): did not mediate DWEYS internalization | internalization of DWEYS, healthy donor serum (primary human monocytes; biotinylated DWEYS with serum from healthy donors): only minimal internalization

B1: high-mobility group box-1 (protein)
chain: MGKGDPKKPRGKMSSYAFFVQTCREEHKKKHPDASVNFSEFSKKCSERWKTMSAKEKGKFEDMAKADKARYEREMKTYIPPKGETKKKFKDPNAPKRPPSAFFLFCSEYRPKIKGEHPGLSIGDVAKKLGEMWNNTAADDKQPYEKKAAKLKEKYEKDIAAYRAKGKPDAAKKGVVKAEKSKKKKEEEEDEEDEEDEEEEEDEEDEDEEEDDDDE
modifications: left off: Calmodulin Binding Protein Epitope (Cbp), end not stated, state not stated
HMGB1 internalization alone [4]: detected in monocytes after 15–30 min in incubation

Kd [6]: 185 µM | IC50 [7]: 34.7 µM
B2: DWEYS peptide (peptide)
peptide: DWEYS
notes: the biotinylated form may have been used there; also called pentapeptide DWEYS; DNA mimetope; source: synthetic peptide (GenScript)

Source: article PMC6297782, “DNA-Mediated Interferon Signature Induction by SLE Serum Occurs in Monocytes Through Two Pathways: A Mechanism to Inhibit Both Pathways” (Frontiers in Immunology, 2018)
